Columns and labels:
Type in all cases: cell-based
Fusarium culmorum = Fusarium culmorum (foot rot of cereals) in vitro test, radial growth on Potato Dextrose Agar; details: for inhibition of growth at 300 ppm: Fusarium culmorum, 168 h, read-out: % control compared to the untreated check (radial growth); for % control compared to the untreated check (radial growth): 300 ppm, seven days, 25° C.
Alternaria solani = Alternaria solani (early blight of tomato/potato) in vitro test, radial growth on Potato Dextrose Agar; details: 168 h, 300 ppm, seven days, 25° C., read-out: % control compared to the untreated check (radial growth)
Pyricularia oryzae = assay: microbe, parasite or virus in culture; details: 168 h, read-out: % control compared to the untreated check (radial growth)
Rhizoctonia solani = Rhizoctonia solani (rice sheath blight/potato black scurf) in vitro test, radial growth on Potato Dextrose Agar; details: 168 h, 300 ppm, seven days, 25° C., read-out: % control compared to the untreated check (radial growth)
Colletotrichum capsici = Colletotrichum capsici (anthracnose) in vitro test, radial growth on Potato Dextrose Agar; details: Colletotrichum truncatum, 168 h; 300 ppm; seven days, 25° C.; read-out: % control compared to the untreated check (radial growth)
Botrytis cinerea = Botrytis cinerea (gray mold) in vitro test, radial growth on Potato Dextrose Agar; details: 168 h, 300 ppm, seven days, 22° C., read-out: % (control) compared to the untreated check (radial growth)
Septoria lycopersici = Septoria lycopersici (leaf spot of tomato) in vitro test, radial growth on Potato Dextrose Agar; details: 168 h, seven days, 25° C., read-out: % control compared to the untreated check (radial growth)

Row | SMILES | inhibition of growth at 300 ppm (Fusarium culmorum) | inhibition of growth at 300 ppm (Alternaria solani) | inhibition of growth at 300 ppm (Pyricularia oryzae) | inhibition of growth at 300 ppm (Rhizoctonia solani) | inhibition of growth at 300 ppm (Colletotrichum capsici) | inhibition of growth at 300 ppm (Botrytis cinerea) | % control compared to the untreated check (radial growth) (Fusarium culmorum) | inhibition of growth at 300 ppm (Septoria lycopersici)
1 | CCN(C)C=Nc1cc(C)c(Cc2cccc(Cl)c2)cc1Cl [Compound 78, N′-(2-chloro-4-(3-chlorobenzyl)-5-methylphenyl)-N-ethyl-N-methylformimidamide] | 75% | > 75% | > 75% | > 80% | > 80% | > 80% |  | 
2 | CCN(C)C=Nc1cc(C)c(Cc2ccc(Cl)cc2)cc1Cl [Compound 79, N′-(2-chloro-4-(4-chlorobenzyl)-5-methylphenyl)-N-ethyl-N-methylformimidamide] | 75% | > 75% | > 75% | > 80% | > 80% | > 80% |  | 
3 | CCN(C)C=Nc1cc(C)c(Cc2cccc(C(F)(F)F)c2)cc1Cl [Compound 80, N′-(2-chloro-5-methyl-4-(3-(trifluoromethyl)benzyl)phenyl)-N-ethyl-N-methylformimidamide] | 75% | > 75% | > 75% | > 80% | > 80% | > 80% |  | 
4 | Cc1cc(N=CN(C)CC2CC2)c(C)cc1Cc1ccccc1F [Compound 87, N-(cyclopropylmethyl)-N-(4-(2-fluorobenzyl)-2,5-dimethylphenyl)-N-methylformimidamide] |  |  |  |  |  |  | 75% | 
5 | CCN(C)C=Nc1cc(C)c(Cc2ccc(F)cc2Cl)cc1Cl [Compound 99, N′-(2-chloro-4-(2-chloro-4-fluorobenzyl)-5-methylphenyl)-N-ethyl-N-methylformimidamide] | 75% | > 75% | > 75% | > 80% | > 80% | > 80% |  | 
6 | CCN(C)C=Nc1cc(C)c(Cc2ccc(F)c(C)c2)cc1Cl [Compound 119, N′-(2-chloro-4-(4-fluoro-3-methylbenzyl)-5-methylphenyl)-N-ethyl-N-methylformimidamide] | 75% | > 75% | > 75% | > 80% | > 80% | > 80% |  | 
7 | CCN(C)C=Nc1cc(C)c(Cc2ccc(OC(F)(F)F)cc2)cc1Cl [Compound 121, N′-(2-chloro-5-methyl-4-(4-(trifluoromethoxy)benzyl)phenyl)-N-ethyl-N-methylformimidamide] | 75% | > 75% | > 75% | > 80% | > 80% | > 80% |  | 
8 | CCN(C)C=Nc1cc(C)c(Cc2cc(F)cc(F)c2)cc1C [Compound 132, N′-(4-(3,5-difluorobenzyl)-2,5-dimethylphenyl)-N-ethyl-N-methylformimidamide] | 75% | > 75% | > 75% | > 80% | > 80% | > 80% |  | 
9 | CCN(C)C=Nc1cc(C)c(Cc2ccc(C(F)(F)F)c(F)c2)cc1Cl [Compound 137, N′-(2-chloro-4-(3-fluoro-4-(trifluoromethyl)benzyl)-5-methylphenyl)-N-ethyl-N-methylformimidamide] | 75% | > 75% | > 75% | > 80% | > 80% | > 80% |  | 
10 | CCN(C)C=Nc1cc(C)c(Cc2c(Cl)cccc2Cl)cc1C [Compound 153, N′-(4-(2,6-dichlorobenzyl)-2,5-dimethylphenyl)-N-ethyl-N-methylformimidamide] | 75% | > 75% | > 75% | > 80% | > 80% | > 80% |  | 
11 | CCN(C)C=Nc1cc(C)c(Cc2c(F)cccc2Cl)cc1C [Compound 155, N′-(4-(2-chloro-6-fluorobenzyl)-2,5-dimethylphenyl)-N-ethyl-N-methylformimidamide] | 75% | > 75% | > 75% | > 80% | > 80% | > 80% |  | 
12 | CCN(C)C=Nc1cc(C)c(Cc2cc(F)cc(OC)c2)cc1C [Compound 156, N-ethyl-N′-(4-(3-fluoro-5-methoxybenzyl)-2,5-dimethylphenyl)-N-methylformimidamide] | 75% | > 75% | > 75% | > 80% | > 80% | > 80% |  | 
13 | CCN(C)C=Nc1cc(C)c(Cc2cccc(C)c2C)cc1Cl [Compound 170, N-(2-chloro-4-(2,3-dimethylbenzyl)-5-methylphenyl)-N-ethyl-N-methylformimidamide] |  |  |  |  |  |  | 75% | 
14 | CCN(C)C=Nc1cc(C)c(Cc2ccc(F)c(C(F)(F)F)c2)cc1Cl [Compound 181, N′-(2-chloro-4-(4-fluoro-3-(trifluoromethyl)benzyl)-5-methylphenyl)-N-ethyl-N-methylformimidamide] | 75% | > 75% | > 75% | > 80% |  | > 80% |  | 
15 | CCN(C)C=Nc1cc(C)c(C(C#N)c2ccc(F)cc2)cc1Cl (centres unmarked) [Compound 189, N′-(2-chloro-4-(cyano(4-fluorophenyl)methyl)-5-methylphenyl)-N-ethyl-N-methylformimidamide] | 75% |  | > 75% | > 80% |  | > 80% |  | 
16 | CCN(C)C=Nc1cc(C)c(Cc2ccc(C)cc2)cc1F [Compound 211, N-ethyl-N-(2-fluoro-5-methyl-4-(4-methylbenzyl)phenyl)-N-methylformimidamide] |  |  |  |  |  |  | 75% | 
17 | CCN(C)C=Nc1cc(Cl)c(C(C)(C(=O)N(C)C)c2cccc(F)c2)cc1C (centres unmarked) [Compound 239, 2-(2-chloro-4-(((ethyl(methyl)amino)methylene)amino)-5-methylphenyl)-2-(3-fluorophenyl)-N,N-dimethylpropanamide] | 75% | > 75% | > 75% | > 80% | > 80% | > 80% |  | 
18 | CCN(C)C=Nc1cc(F)c(Cc2ccc(C)cc2)cc1F [Compound 245, N′-(2,5-difluoro-4-(4-methylbenzyl)phenyl)-N-ethyl-N-methylformimidamide] |  | > 75% | > 75% | > 80% | > 80% | > 80% |  | > 70%
19 | CCN(C)C=Nc1cc(C#N)c(Cc2ccccc2Cl)cc1C [Compound 246, N′-(4-(2-chlorobenzyl)-5-cyano-2-methylphenyl)-N-ethyl-N-methylformimidamide] |  | > 75% | > 75% | > 80% | > 80% | > 80% |  | > 70%
20 | CCN(C)C=Nc1cc(F)c(Cc2ccccc2Cl)cc1F [Compound 253, N′-(4-(2-chlorobenzyl)-2,5-difluorophenyl)-N-ethyl-N-methylformimidamide] | 75% | > 75% | > 75% | > 80% |  | > 80% |  | 
21 | CCN(C)C=Nc1cc(F)c(Cc2ccccc2C)cc1F [Compound 254, N′-(2,5-difluoro-4-(2-methylbenzyl)phenyl)-N-ethyl-N-methylformimidamide] |  | > 75% | > 75% | > 80% | > 80% | > 80% |  | > 70%
22 | CCN(C)C=Nc1cc(Cl)c(Cc2ccccc2Cl)cc1C [Compound 255, N′-(5-chloro-4-(2-chlorobenzyl)-2-methylphenyl)-N-ethyl-N-methylformimidamide] |  | > 75% | > 75% | > 80% | > 80% | > 80% |  | > 70%
23 | CCN(C)C=Nc1cc(F)c(Cc2cccc(F)c2)cc1F [Compound 269, N′-(2,5-difluoro-4-(3-fluorobenzyl)phenyl)-N-ethyl-N-methylformimidamide] | 75% | > 75% | > 75% | > 80% | > 80% | > 80% |  | 
24 | CCN(C)C=Nc1ccc(Cc2ccccc2Cl)c2ccccc12 [Compound 270, N′-(4-(2-chlorobenzyl)naphthalen-1-yl)-N-ethyl-N-methylformimidamide] |  | > 75% | > 75% | > 80% | > 80% | > 80% |  | > 70%

— patent publication US11155517B2, “4-substituted phenylamine derivatives and their use to protect crops by fighting undesired phytopathogenic micoorganisms” (PI INDUSTRIES LTD., priority 2016, dated 2021)
